Assay results taken from ChEMBL document CHEMBL1201862, “PubChem BioAssay data set” (2004).
Calls of active or inactive are those of the source.

Experiments:
[1] = target: T1, G-protein coupled receptor 55 (Homo sapiens, UniProt Q9Y2T6); experiment: GPR55 antagonists blocking LPI-driven arrestin recruitment, primary screen, imaging, U2OS, beta-arrestin-GFP, LPI agonist (AID 2013); type: functional;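 note: antagonist potency measured as reduced agonist-driven arrestin aggregation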
[2] = target: Induced myeloid leukemia cell differentiation protein Mcl-1 (Homo sapiens, UniProt Q07820); type: functional
[3] = target: T2, Cannabinoid receptor 1 (Homo sapiens, UniProt P21554); experiment: SAR analysis of antagonists of the Cannabinoid Receptor 1 using an Image-Based Assay - Set 2. [Related pubchem assays (depositor defined):AID2013, AID2026]; type: functional
[4] = target: T3, G-protein coupled receptor 35 (Homo sapiens, UniProt Q9HC97); experiment: SAR analysis of Agonists of the GPR35 Receptor using an Image-Based Assay - Set 2. [Related pubchem assays (depositor defined):AID2013, AID2026]; type: functional
[5] = target: T4, Cannabinoid receptor 2 (Homo sapiens, UniProt P34972); experiment: SAR analysis of antagonists of the Cannabinoid Receptor 2 using an Image-Based Assay. [Related pubchem assays (depositor defined):AID2013, AID2026]; type: functional
[6] = target: T2, Cannabinoid receptor 1; experiment: SAR analysis of agonists of the Cannabinoid Receptor 1 using an Image-Based Assay - Set 2. [Related pubchem assays (depositor defined):AID2013, AID2026]; type: functional
[7] = target: T3, G-protein coupled receptor 35; experiment: SAR analysis of Antagonists of the GPR35 Receptor using an Image-Based Assay - Set 3. [Related pubchem assays (depositor defined):AID2013, AID2026]; type: functional
[8] = target: T1, G-protein coupled receptor 55; experiment: GPR55 antagonist potency of analogs, SAR follow-up, imaging, U2OS, beta-arrestin-GFP, LPI agonist, set 2 (AID 2820); type: functional
[9] = target: T2, Cannabinoid receptor 1; experiment: SAR analysis of antagonists of the Cannabinoid Receptor 1 using an Image-Based Assay - Set 4. [Related pubchem assays (depositor defined):AID2013, AID2026]; type: functional
[10] = target: T1, G-protein coupled receptor 55; experiment: SAR Analysis of Selective Antagonists of GPR55 using an Image-Based Assay - Set 4. [Related pubchem assays (depositor defined):AID2013, AID2026]; type: functional
[11] = target: T4, Cannabinoid receptor 2; experiment: SAR analysis of antagonists of the Cannabinoid Receptor 2 using an Image-Based Assay - Set 3. [Related pubchem assays (depositor defined):AID2013, AID2026]; type: functional
[12] = target: T4, Cannabinoid receptor 2; experiment: SAR analysis of agonists of the Cannabinoid Receptor 2 using an Image-Based Assay. [Related pubchem assays (depositor defined):AID2013, AID2026]; type: functional
[13] = target: T4, Cannabinoid receptor 2; experiment: SAR analysis of agonists of the Cannabinoid Receptor 2 using an Image-Based Assay - Set 3. [Related pubchem assays (depositor defined):AID2013, AID2026]; type: functional
[14] = target: Tyrosine-protein phosphatase non-receptor type 11 (Homo sapiens, UniProt Q06124); experiment: SHP2 phosphatase inhibition, dose response, selectivity assay for STEP inhibitor project, biochemical (AID 602367); type: functional; settings: read-out: IC50_Mean
[15] = target: Tyrosine-protein phosphatase non-receptor type 5 (Homo sapiens, UniProt P54829); experiment: STEP phosphatase inhibitors, confirmation, biochemical, fluorescence intensity, uHTS hits (AID 602372); type: functional; settings: read-out: IC50_Mean
[16] = target: Dual specificity protein phosphatase 3 (Homo sapiens, UniProt P51452); experiment: VHR phosphatase inhibition, dose response, selectivity assay for STEP inhibitor project, biochemical (AID 602374); type: functional; settings: read-out: IC50_Mean
[17] = target: T5, Caspase-6 (Homo sapiens, UniProt P55212); experiment: human caspase-6 inhibitors, dose response, biochemical, VEID-R110 fluorescence, cherry-pick (AID 720632)
T5 sequence (P55212 whole entry): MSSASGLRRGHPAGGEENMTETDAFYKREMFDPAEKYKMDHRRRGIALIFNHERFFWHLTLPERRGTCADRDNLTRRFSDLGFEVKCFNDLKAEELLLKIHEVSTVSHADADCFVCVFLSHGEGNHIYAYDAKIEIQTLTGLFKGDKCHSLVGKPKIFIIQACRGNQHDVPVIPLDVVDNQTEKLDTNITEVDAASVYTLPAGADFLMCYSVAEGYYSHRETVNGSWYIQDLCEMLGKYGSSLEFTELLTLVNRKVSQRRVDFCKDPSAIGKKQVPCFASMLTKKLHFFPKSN

[18] = target: Troponin, cardiac muscle (Homo sapiens, UniProt P19429+P45379+P63316); experiment: Fluorescence-based biochemical high throughput dose response assay for activators of the calcium sensitivity of cardiac Regulated Thin Filaments (RTF). [Related pubchem assays (depositor defined):AID493008, AID493018, AID504382, AID504383]; type: protein-complex assay
[19] = target: Guanyl-specific ribonuclease T1 (Aspergillus oryzae (strain ATCC 42149 / RIB 40), UniProt P00651); experiment: RNase T1 inhibitors, dose response, counter-screen for TPT1 inhibitor project, biochemical, fluorescence polarization, 1536-well (AID 2167)
[20] = target: Ion channel NompC (Danio rerio, UniProt Q7T1G6); experiment: Dose response cell-based high-throughput screening assay for agonists of the transient receptor potential channel N1 (TRPN1). [Related pubchem assays (depositor defined):AID1424, AID1448]; type: functional
[21] = target: Likely tRNA 2'-phosphotransferase (Candida albicans (strain SC5314 / ATCC MYA-2876) (Yeast), UniProt Q5A7N4); experiment: TPT1 tRNA phosphotransferase inhibitors, dose response, biochemical, fluorescence polarization (AID 2160)
[22] = target: Mucolipin-3 (Homo sapiens, UniProt Q8TDD5); experiment: Fluorescence counterscreen assay for […] agonists: dose response cell-based high-throughput screening assay to identify agonists of the transient receptor potential channel ML3 (TRPML3). [Related pubchem assays: 1424, 1448 ]; type: functional
[23] = target: T6, Endoribonuclease toxin MazF (Escherichia coli K-12, UniProt P0AE70); experiment: MazF toxin RNase activators, dose response, biochemical, fluorescence, single-stranded RNA substrate, uHTS hits (AID 588481); type: functional
T6 sequence (P0AE70 whole entry): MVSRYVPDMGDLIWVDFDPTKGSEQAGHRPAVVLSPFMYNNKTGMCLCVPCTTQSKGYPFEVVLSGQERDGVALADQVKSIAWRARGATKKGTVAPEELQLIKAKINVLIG

[24] = target: T6, Endoribonuclease toxin MazF; experiment: fluorescent RNA oligo signal without MazF, dose response, counter-screen for MazEF activator project, biochemical, fluorescence, single-stranded RNase substrate (AID 588502); type: functional

Cc1cc(C)c2nc(-c3ccccn3)cc(C(=O)Nc3ccc(S(=O)(=O)Nc4onc(C)c4C)cc3)c2c1
IC50 [1]: < 0.5 µM (active)
IC50 [2]: 4.01 µM (active)
IC50 [3]: > 32 µM (inactive)
EC50 [4]: > 32 µM (inactive)
IC50 [5]: > 32 µM (inactive)
EC50 [6]: > 32 µM (inactive)
IC50 [7]: > 32 µM (inactive)
IC50 [8]: 0.136 µM (active)
IC50 [9]: 24.6 µM (inactive)
IC50 [10]: 0.263 µM (active)
IC50 [11]: > 32 µM (inactive)
EC50 [12]: > 32 µM (inactive)
EC50 [13]: > 32 µM (inactive)
IC50 [14]: 2.95 µM (active)
IC50 [15]: 28.3 µM (inactive)
IC50 [16]: 2.73 µM (active)
AC50 [17]: 14.7 µM (active)

Cc1ccc(-c2ccc(OC(=O)c3ccc(=O)[nH]c3)c(C)c2)cc1
EC50 [18]: > 71.5 µM (inactive)

CC(=O)N1C(=O)C(=C2C=C(C)OC(C)=C2)c2ccccc21
IC50 [19]: 2.13 µM (active)
EC50 [20]: 22 µM (inactive)
IC50 [21]: > 2.06 µM (active)
EC50 [22]: > 29.9 µM (not active)
EC50 [23]: > 99 µM (inactive)
EC50 [24]: > 99 µM (inactive)
